Like-named read-outs stand apart in the source and are kept apart here.

The conditions of data set [1]: cited from earlier work.
Data set [2] in a line: Dissolution of tacrolimus compositions in 0.005% HPC, pH 4.5, USP <711> apparatus I, baskets at 100 rpm. It counts as physicochemical. The method, then:
Compositions A, B, and C were placed in 0.005% HPC, pH 4.5 according to USP <711>, apparatus I (2009), Baskets at 100 rpm (the dissolution vehicle). As an example of the different release profiles for the three compositions, the amount of medicament released from composition A was 92.07% at 120 min. The amount of medicament released from composition B was less than 10% at 360 min (excluded from graph due to scale). The amount of medicament released from Composition C was 43.55% at 120 min.

Turning to `CN1CCN(C2=Nc3cc(Cl)ccc3Nc3ccccc32)CC1` [clozapine], the pka value is on record as 3.98 in data set [1] (first of two printed pka values) and 7.62 in data set [1] (second of two printed pka values).

Regarding `C=CC[C@@H]1/C=C(\C)C[C@H](C)C[C@H](OC)[C@H]2O[C@@](O)(C(=O)C(=O)N3CCCC[C@H]3C(=O)O[C@H](/C(C)=C/[C@@H]3CC[C@@H](O)[C@H](OC)C3)[C@H](C)[C@@H](O)CC1=O)[C@H](C)C[C@@H]2OC` [tacrolimus], the “native solubility of tacrolimus in this dissolution vehicle” value in data set [2] is “approximately 43 % dissolved”.

These data come from patent US20150283092A1, “DRUG DELIVERY COMPOSITION” (Alkermes Pharma Ireland Limited, priority 2009, published 2015).
